Read-outs that look alike come from different tables or passages of the source.
How the values were obtained:
[1] = test system: pyrexia induced by TTG No. 2; assay: Antipyretic Activity in Pyrexia-Induced Rabbits; assay type: in vivo, Japanese rabbits; conditions: 200 mg./kg. oral
Protocol: Common white male Japanese rabbits, 2.0 - 3.0 kg. body weight, were injected through the ear vein with 20 μg./kg. of a pyrexia inducer TTG No. 2, purified polysaccharide preparation obtained from Pseudomonas aeruginosa (marketed by Fujisawa Pharmaceutical Company, Japan), and the body temperature was monitored with a rectal thermister-type thermometer. Three hours prior to the TTG injection four rabbits in each experimental section orally received the test drug in the dose of 200 mg./kg. One group received aspirin in a dose of 100 mg./kg and a control group no drug.

[2] = test system: acetic acid-induced stretching movements; assay: Analgesic Activity in mice (acetic acid stretching); assay type: in vivo, mice (DDY Strain); conditions: control (no drug) 53
Protocol: Male mice of the DDY Strain having mean body weight of 20 g. were divided to the groups of 10 animals each, to which compounds of this invention or aminopyrine in saline solution were administered intraperitoneally (i.p.). The dosage was 200, 50 or 12.5 mg./kg. Then 30 minutes later, 0.2 ml. per 20 g. body weight of 0.7% acetic acid in saline was injected intraperitoneally and the number of characteristic stretching movements counted for 20 minute period and compared with a control group receiving no analgesic.

Acute toxicity, rats = conditions: rat, in vivo, printed 'for oral administration', then first of 'respective administration'
Protocol: The acute toxicity was determined for oral and intraperitoneal administration with mice and rats (6 mice and 2 rats in one dose group), and the LD50 value, i.e., the single application dose killing 50% of the test animals, was estimated.

[3] = test system: anaphylactic shock (egg albumin); assay: Effect on the Anaphylactic Shock in Mice; assay type: in vivo, mice (DDY Strain)
Protocol: DDY Strain mice were sensitized by subcutaneous injection of a mixture of 0.1 ml. (100 μg.) egg albumin (Nutritional Biochemical Corp. U.S.A., 5 times crystallized) and 0.1 ml. Freund's complete adjuvant (Difco Co., U.S.A.) in saline. The mice were used for the test 3 months thereafter. The sensitized animals were divided in 3 groups of 4 animals each, which were subcutaneously administered the test compound several times before antigen challenge to cause anaphylactic shock. Group 1 received 100 mg./kg. 19 hours before and 50 mg./kg. 9, 4 and 1 hour before challenge. Group 2 received 100 mg./kg. 9 hours before and 50 mg./kg. 4 and 1 hour before challenge. Group 3 was a control group and received only saline solution.

rats = assay: Subacute toxicity, daily doses for 32 consecutive days; assay type: in vivo; conditions: 3.1, 12.5, 50 and 200 mg./kg. daily, oral or i.p., 32 days
histidine decarboxylase [4] = molecular target: T1, histidine decarboxylase (Rattus norvegicus, UniProt P16453); assay: Inhibition of Histidine Decarboxylase (14C-histamine formation); assay type: biochemical, fetal rats
T1 construct: a crude enzyme preparation obtained from fetal rats; from tissue
T1 sequence (P16453 1-656): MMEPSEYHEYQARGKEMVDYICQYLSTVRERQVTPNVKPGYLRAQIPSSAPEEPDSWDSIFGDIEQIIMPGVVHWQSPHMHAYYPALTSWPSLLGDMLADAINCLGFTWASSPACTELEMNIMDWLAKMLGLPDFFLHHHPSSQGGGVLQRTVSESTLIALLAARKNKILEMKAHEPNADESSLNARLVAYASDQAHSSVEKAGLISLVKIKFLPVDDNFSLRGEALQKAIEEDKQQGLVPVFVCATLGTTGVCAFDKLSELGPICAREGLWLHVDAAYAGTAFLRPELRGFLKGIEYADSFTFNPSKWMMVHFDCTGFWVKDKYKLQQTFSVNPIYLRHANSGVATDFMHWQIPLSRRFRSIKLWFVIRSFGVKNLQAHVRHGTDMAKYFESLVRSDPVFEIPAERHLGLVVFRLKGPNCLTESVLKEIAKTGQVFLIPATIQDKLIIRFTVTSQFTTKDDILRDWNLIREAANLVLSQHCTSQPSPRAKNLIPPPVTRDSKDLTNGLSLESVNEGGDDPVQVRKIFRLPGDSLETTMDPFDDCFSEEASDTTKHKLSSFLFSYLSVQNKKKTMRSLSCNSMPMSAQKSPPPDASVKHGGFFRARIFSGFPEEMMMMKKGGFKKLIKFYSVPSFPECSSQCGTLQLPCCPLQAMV
Protocol: After two hours of incubation at 37° C., the histamine 2-^14 C formed was collected on an ion exchange resin ("Amberlite" CG-50, ammonia type) from which, after washing with water, the histamine was liberated in 1N aqueous ammonia solution and radioactivity was measured.

histidine decarboxylase [5] = conditions: cited from earlier work
animals [6] = conditions: cited from earlier work
animals [7] = conditions: cited from earlier work; remark: listed apart in the source
[8] = 2 hrs. after TTG, control (no drug) 1.2
[9] = 4 hrs. after TTG, control (no drug) 1.6
[10] = Group 1 (100 mg./kg. 19 h, 50 mg./kg. 9, 4, 1 h before), mouse 1, control 5
[11] = Group 2 (100 mg./kg. 9 h, 50 mg./kg. 4, 1 h before), mouse 1, control 5

SMILES | Antipyretic Activity: Elevation of Body Temperature [1, 8] | Antipyretic Activity: Elevation of Body Temperature [1, 9] | Analgesic Activity: Stretching Count (20 minutes) ([2]; 50 mg./kg. i.p.) | Analgesic Activity: Stretching Count (20 minutes) ([2]; 200 mg./kg. i.p.) | Symptoms emerged, time after challenge [3, 10] | Died, time after challenge ([3]; Group 1, mouse 1, control 15) | Symptoms emerged, time after challenge ([3]; Group 1, mouse 2, control 3) | Symptoms emerged, time after challenge [3, 11] | Symptoms emerged, time after challenge ([3]; Group 2, mouse 2, control 3) | Died, time after challenge ([3]; Group 2, mouse 2, control 20) | Symptoms emerged, time after challenge ([3]; Group 2, mouse 3, control 7) | Died, time after challenge ([3]; Group 2, mouse 4, control 20) | disease symptoms or abnormality attributable to drug dosing (rats) | weight gain (rats) | further results
O=C(Nc1cc(Cl)c(O)c(Cl)c1)c1ccccc1O [Compound 1] | 0.6 °C | 0.5 °C | 11 | 4 | 15 min | 30 min | 20 min | 35 min | 10 min | 30 min | 25 min | 40 min | no particular disease symptoms or abnornality attributable to the drug dosing was noted | the weight gain was normal | LD50 (Acute toxicity, rats): 2200 mg/kg; Died, time after challenge ([3]; Group 1, mouse 2, control 20): 35 min; Symptoms emerged, time after challenge ([3]; Group 2, mouse 4, control 3): 20 min; IC50 (histidine decarboxylase [4]): 22 nM
CCC(=O)Oc1ccccc1C(=O)Nc1cc(Cl)c(OC(=O)CC)c(Cl)c1 [Compound 33] | 0.6 °C | 0.5 °C | 12 | 5 | 10 min | 30 min | 25 min | 20 min | 20 min | 45 min | 30 min | 40 min | no particular disease symptoms or abnornality attributable to the drug dosing was noted | the weight gain was normal | Symptoms emerged, time after challenge ([3]; Group 1, mouse 3, control 7): 30 min; Died, time after challenge ([3]; Group 2, mouse 1, control 15): 40 min; IC50 (histidine decarboxylase [4]; pH 6.8, two hours at 37° C., read-out: Histidine Decarboxylase Inhibition ID50): 39 nM
Cc1cc(OC(=O)c2c(C)cc(O)cc2O)cc(O)c1C(=O)O [Lecanoric acid, 4'-carboxy-2,3'-dimethyl-4,6,5'-trihydroxyphenylbenzoate] |  |  |  |  |  |  |  |  |  |  |  |  |  |  | inhibitory activity to histidine decarboxylase (in words) (histidine decarboxylase [5]): strong inhibitory activity; hydrolysis in animals (animals [6]): hydrolysed in animals; anti-inflammatory activity (in words) (animals [7]): only weak anti-inflammatory activity
